The record followed here is the SangsterLogP compilation.

A short description of data set [1]: method code SF-HPLC, from DOI: 10.1016/0378-5173(89)90028-8.
Data set [2] is described as follows: method code SF-AS, from DOI: 10.1135/cccc19831077. As to conditions: pH 3.5.
The nature of data set [3]: method code SF-AS, from DOI: 10.1021/jm00040a014, PMID: 8035429. As to conditions: pH 7.4.
Data set [4] can be described thus: method code SF-AS, from DOI: 10.1002/ardp.19853180604, PMID: 4026543. As to conditions: pH 7.4.
Data set [5] in a line: method code SF-HPLC, from DOI: 10.1080/01483919108049396. Particulars: pH 7.0.
Data set [6] can be described thus: method code SF-HPLC, from DOI: 10.1248/cpb.47.1081, PMID: 10478463. Particulars: pH 6.5.
Experiment in data set [7]: not given
This is another data set of the same source.

Data set [8] in a line: method code SF, from PMID: 25193232. As to conditions: pH 7.4.
Data set [9] is described as follows: method code SF-AS, from DOI: 10.1021/jm00234a001, PMID: 1003419.
Data set [10] in a line: method code SF-HPLC, from DOI: 10.1016/0378-5173(90)90181-3. Particulars: pH 7.4.
Data set [11] is described as follows: method code SF-RC, from DOI: 10.1021/jf60186a044, PMID: 4688915.
Data set [12] can be described thus: method code SF-HPLC, from DOI: 10.1023/a:1011018730459, PMID: 11451042.
Experiment in data set [13]: not given
This is another data set of the same source.

Data set [14] can be described thus: method code SF, from DOI: 10.1021/jm00294a005, PMID: 5000561.
A short description of data set [15]: method code SF-HPLC, from DOI: 10.1016/s0223-5234(98)80037-8. As to conditions: pH 7.4.
Experiment in data set [16]: not given
This is another data set of the same source.

Data set [17] is described as follows: method code SF, from DOI: 10.1016/0006-2952(79)90295-8, PMID: 36087.
Data set [18] is described as follows: method code SF-HPLC, from PMID: 9554875. As to conditions: pH 6.8.
Experiment in data set [19]: not given
This is another data set of the same source.

Data set [20] can be described thus: method code SF, from PMID: 7274411.
The nature of data set [21]: method code SF-HPLC, from DOI: 10.1016/s0024-3205(00)00615-9, PMID: 10901288. As to conditions: pH 5.0.

Usually logP stands for the decadic logarithm of the partition coefficient of the neutral form, usually between octanol and water. Read a high logP as a more lipophilic compound. With `Cn1c(=O)nc(-c2ccccc2)c2ccccc21`, the logP was determined as 1.79. Take `CCn1cc(C(=O)OCOC(C)=O)c(=O)c2ccc(C)nc21`: the logP in data set [1] was 1.21. What is called logD is the decadic logarithm of the distribution of all forms, ionised or not, between an organic phase and buffer at a given pH. Read a low logD as lower lipophilicity. On to `O=C(O)Cc1ccc(OCCCc2ccccc2)c(Cl)c1`, for which, in data set [2], the logD came to 3.9.

In the case of `CCOP(=O)(OCC)C(=O)OCC1OC(n2ccc(NC(C)=O)nc2=O)CS1` (stereo not given), the logD in data set [3] was 0.65.

For the compound `Cc1ccc(N2C(=O)CSC2=Nn2c(C)nc3ccccc3c2=O)cc1`, in [4], the logD was -1.12. Consider `O=C(Nc1ncnc2c1ncn2[C@@H]1O[C@H](CO)[C@@H](O)[C@H]1O)c1ccccc1`, for which the logD in [5] was -0.1. As for `CON=C(C(=O)NC1C(=O)N2C(C(=O)OCOC(=O)C(C)(C)C)=CCSC12)c1csc(N)n1` (stereo not given), the logD in [6] worked out at 1.57.

Regarding `Cc1cccc2c1Oc1ccccc1C2NC(=O)CN(C)C` (stereo not given), in data set [7], the logP worked out at 2.7. Turning to `Cn1c(=O)nc(-c2ccccc2)c2cc(O)ccc21`, the logP came to 1.72. Compound `O=C(NOC[C@H](O)CO)c1ncc2cncn2c1Nc1ccc(I)cc1F` came in with a logD in data set [8] of 1.1.

As to `OCC1OC(Oc2c(I)cc(I)c(OC3OC(CO)C(O)C(O)C3O)c2I)C(O)C(O)C1O` (stereo not given), the logP in [9] was -0.74. In turn, `CCC(=O)OCOC(=O)c1cn(CC)c2nc(C)ccc2c1=O` registered a logP in [1] of 1.7.

In [9], `OCC1OC(Oc2cc(OC3OC(CO)C(O)C(O)C3O)c(I)cc2I)C(O)C(O)C1O` (stereo not given) came in with a logP of -0.25. In data set [5], `O=C(Nc1ccn(C2OC(CO)C(O)C2O)c(=O)n1)c1ccccc1` (stereo not given) registered a logD of 0.3. `Cc1nc2ccccc2c(=O)n1N=C1SCC(=O)N1c1ccc(F)cc1` came in with a logD in [4] of -1.36.

As to `O=C(OCn1ncc2c(=O)[nH]cnc21)c1ccc(CN2CCOCC2)cc1`, the logD in data set [10] came out at 1.13. As to `CCOCCOCCOc1ccc2c(c1)c(-c1ccccc1)nc(=O)n2C`, the logP turned out to be 1.84. As to `COc1ccc(C(c2ccc(SC)cc2)C(Cl)(Cl)Cl)cc1` (stereo not given), in [11], the logP is 2.9. Take `CCCCC(=O)OCC1OC(n2cnc3c(NC4CCCC4)ncnc32)C(O)C1O` (stereo not given): in data set [12], the logP came out at 2.79. In data set [13], `COc1ccc2cc(C(C)C(=O)OCC(O)CO)ccc2c1` (stereo not given) showed a logP of 2.65.

For `CCOc1ccc(C(c2ccc(C)cc2)C(Cl)(Cl)Cl)cc1` (stereo not given), the logP in data set [11] was 3.96. With `O=C(NOCCO)c1ccn2cncc2c1Nc1ccc(I)cc1F`, the logD in data set [8] came out at 2.05.

In turn, `CCCC1CC(C(=O)NC(C(C)O)C2OC(SC)C(O)C(O)C2O)N(C)C1` (stereo not given) had a logP in data set [14] of 0.2. `CSc1ccc(C(c2ccc(SC)cc2)C(Cl)(Cl)Cl)cc1` gave a logP in data set [11] of 3.85.

Take `CC(C)Cc1ccc(C(C)C(=O)OCN2C(=O)c3ccccc3C2=O)cc1` (stereo not given): in data set [15], the logD was found to be 5.36.

Compound `CO[C@@H]1[C@@H](O[C@@H]2O[C@H](C)[C@@H](O[C@H]3C[C@@](C)(O)[C@@H](OC(=O)CC(C)C)[C@H](C)O3)[C@H](N(C)C)[C@H]2O)[C@@H](CC=O)C[C@@H](C)[C@@H](O)/C=C/C=C/C[C@@H](C)OC(=O)C[C@H]1O` gave a logP in [14] of 2.18. In [16], `CN1CCN(CCCN2c3ccccc3Sc3ccc(C(F)(F)F)cc32)CC1` yielded a logP of 4.71. `COc1ccc2c(c1)c(CC(=O)OCN1C(=O)c3ccccc3C1=O)c(C)n2C(=O)c1ccc(Cl)cc1`: the logD in data set [15] was determined as 5.64. In data set [15], `CC(=O)Oc1ccccc1C(=O)OCN1C(=O)c2ccccc2C1=O` displayed a logD of 3.23. Turning to `CCN1CCN(Cc2ccc(OC)c(OC)c2OC)CC1`, in data set [16], the logP stood at 1.69.

`COc1ccc(N2C(=O)CSC2=Nn2c(C)nc3ccccc3c2=O)cc1` yielded a logD in data set [4] of -1.23.

On to `COc1ccc2cc(C(C)C(=O)OCC(COC(=O)C(C)c3ccc4cc(OC)ccc4c3)OC(=O)C(C)c3ccc4cc(OC)ccc4c3)ccc2c1` (stereo not given), for which the logP in data set [13] was 6.84. `CC(=O)NCc1cccc(OCC(O)CNC(C)C)c1` (stereo not given): the logP in data set [17] is 0.34. `Cc1cn(C2C=CC(COP3(=O)OCc4cc([N+](=O)[O-])ccc4O3)O2)c(=O)[nH]c1=O` (stereo not given) registered a logD in data set [18] of 0.18.

Turning to `COc1ccc2cc(C(C)C(=O)OCC3COC(C)(C)O3)ccc2c1` (stereo not given), the logP in data set [13] amounted to 4.23.

In turn, `CCOP(=O)(CC(=O)OCC1OC(n2ccc(N)nc2=O)CS1)OCC` (stereo not given) registered a logD in [3] of 0.48. `CCN(CC)CC(=O)NC1c2ccccc2Oc2c(C)cccc21` (stereo not given) came in with a logP in data set [7] of 3.73.

In the case of `CCn1cc(C(=O)OCOC(=O)C(C)C)c(=O)c2ccc(C)nc21`, the logP in data set [1] was determined as 2.17. `Cc1cc(CC(=O)O)ccc1OCc1ccccc1` displayed a logD in [2] of 3.37. In turn, `OC1(c2cccc(Cl)c2)c2ccccc2C2=NCCN21` (stereo not given) gave a logP in [19] of 1.85. `OC[C@H]1O[C@@H](n2cnc3c(NC4CCCC4)ncnc32)[C@H](O)[C@@H]1O` gave a logP in data set [12] of 1.21. In [5], `O=C(Nc1ncnc2c1ncn2[C@H]1C[C@H](O)[C@@H](CO)O1)c1ccccc1` came in with a logD of 0.22. The compound `Cc1cn(C2C=CC(COP3(=O)OCc4cc(Cl)ccc4O3)O2)c(=O)[nH]c1=O` (stereo not given) showed a logD in data set [18] of 0.88. `CCN(CC)CCCC(C)Nc1c2ccc(Cl)cc2nc2ccc(OC)cc12` (stereo not given) showed a lipophilicity (logP) in data set [16] of 5.09. The compound `OC1(c2cccc(Br)c2)c2ccccc2C2=NCCN21` (stereo not given) yielded a logP in data set [19] of 1.97. `CNC(=O)COc1ccc(OCC(O)CNC(C)C)cc1` (stereo not given) came in with a logP in [17] of 0.56. `O=C(O)Cc1ccc(OCc2ccccc2)c(Cl)c1` returned a logD in [2] of 3.43. As for `CCOC(=O)OC(C)OC(=O)C1=CCSC2C(NC(=O)C(=NOC)c3csc(N)n3)C(=O)N12` (stereo not given), the logD in data set [6] came to 0.96. As for `CC(O)CONC(=O)c1ncc2cncn2c1Nc1ccc(I)cc1F` (stereo not given), in data set [8], the log distribution coefficient (logD) was found to be 2.2. Regarding `C/N=C1/CN(O)C(c2ccccc2)=c2cc(Cl)ccc2=N1`, the logD in data set [20] (pH 8.0) came out at 2.12. For `O=C(OCn1ncc2c(=O)[nH]cnc21)c1cccc(Cn2ccnc2)c1`, the logD in data set [10] came to 0.97. The compound `CN1C(=O)CN=C(c2ccccc2F)c2cc([N+](=O)[O-])ccc21` came in with a logD in [20] (pH 4.0) of 2.05. In data set [10], `O=C(OCn1ncc2c(=O)[nH]cnc21)c1cccc(CN2CCOCC2)c1` registered a logD of 1.12.

In data set [17], `CNC(=O)COc1cccc(OCC(O)CNC(C)C)c1` (stereo not given) gave a logP of 0.35. For the compound `CCCCNC(=O)Oc1cc(/C=C(\C#N)C(=O)N(CC)CC)cc([N+](=O)[O-])c1O`, the logD in data set [21] came out at 1.98. Turning to `CNC(=O)c1c(I)c(O[C@@H]2O[C@H](CO)[C@@H](O)[C@H](O)[C@H]2O)c(I)c(O[C@@H]2O[C@H](CO)[C@@H](O)[C@H](O)[C@H]2O)c1I`, the logP in data set [9] was -1.57.

Turning to `O=C1CN=C(c2ccccc2)c2cc([N+](=O)[O-])ccc2N1`, in data set [20] (pH 8.0), the logD was determined as 2.06. The compound `CCOP(=O)(OCC)C(=O)CCCCNc1ccn(C2CSC(CO)O2)c(=O)n1` (stereo not given) returned a logD in data set [3] of 1.21. Turning to `Cc1cccc2c1Oc1cc(Cl)ccc1C2NC(=O)CN(C)C` (stereo not given), the logP in [7] is 3.44. Compound `COc1cccc2c1OP(=O)(OC[C@@H]1C=C[C@H](n3cc(C)c(=O)[nH]c3=O)O1)OC2` (stereo not given in full) displayed a logD in data set [18] of 0.15.

As to `CO/N=C(/C(=O)NC1C(=O)N2C(C(=O)OCc3oc(=O)oc3C)=CCSC12)c1csc(N)n1` (stereo not given), the logD in [6] is 0.17. For the compound `OC1(c2cccc(I)c2)c2ccccc2C2=NCCN21` (stereo not given), the logP in [19] came out at 2.3. Turning to `CCN(CC)C(=O)C(C#N)=Cc1cc(OC(=O)NC(C)(C)C)c(O)c([N+](=O)[O-])c1`, the logD in [21] was determined as 1.8.

In data set [12], `O=C(OCC1OC(n2cnc3c(NC4CCCC4)ncnc32)C(O)C1O)C1CCCCC1` (stereo not given) registered a logP of 2.95. `CCNC(=O)Oc1cc(/C=C(\C#N)C(=O)N(CC)CC)cc([N+](=O)[O-])c1O` had a logD in [21] of 0.82.
